Among the data in the METLIN SMRT retention time set (Domingo-Almenara et al. 2019) are RP-LC retention time values, retold here.

The nature of this data set: gradient 5% acetonitrile 3 min, to 50% in 2 min, to 85% in 15 min, held 3 min, 100 µL/min. The note with it: column: Zorbax Extend-C18 2.1 x 50 mm; eluents: water / acetonitrile, 0.1% formic acid. In outline:
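Pure standards were run in mixtures of ~100 molecules by HPLC coupled to a quadrupole time-of-flight mass spectrometer. The column was a Zorbax Extend-C18 (2.1 × 50 mm, 1.8 μm) at 100 μL/min, with water and acetonitrile each containing 0.1% formic acid, in positive and negative ionization mode. Dead and dwell volumes were 40 μL and 900 μL. Retention time was taken from computationally picked adduct peaks, each manually inspected, with data collected over 3 months.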
The molecule `CN1CCn2cc(S(=O)(=O)Nc3ccc(F)cc3)cc2C1=O` showed an RP-LC retention time of 678 s.
`Cn1c(=O)cnc2ccc(N3CCOCC3)nc21` had an RP-LC retention time of 662 s.
`CCn1cc(S(=O)(=O)N2CCCC(n3c(C)cnc3-c3ccccc3)C2)cn1` (centres undefined) returned an RP-LC retention time of 639 s.
The same measure for `Cc1noc(-c2cccc(OC3CN(C(=O)c4cccc5[nH]ccc45)C3)c2)n1`: 824 s.
The same measure for `COc1ccc(Cc2nnc3sc(-c4ccc(OC)cc4OC)nn23)cc1`: 1030 s.
Next, `CCOc1cc(N2CCN(C(=O)c3cc(Cl)ccc3OC)CC2)nc(C)n1`: 610 s; `Cc1nc(-c2csc(S(=O)(=O)N3CCC(C(=O)NC4CCCCC4)CC3)c2)no1`: 879 s.
The molecule `CCOc1ccc(-c2ccc(=O)n(CCNC(=O)c3ccc(N(C)C)cc3)n2)cc1` yielded an RP-LC retention time of 732 s.
On to `Cc1ccc(NC(=O)CN2C(=O)COc3ccc(C(=O)N4CCCC4)cc32)nc1`, for which the RP-LC retention time worked out at 625 s.
For `CCn1c(N2CCC(C(=O)N3CCN(c4ccccn4)CC3)CC2)cc(=O)n(C)c1=O`, the RP-LC retention time was found to be 584 s.
Consider `CCCNC(=O)C1CCCN(c2ccc(SCC(=O)Nc3ccc(C(=O)OCC)cc3)nn2)C1` (centres undefined), for which the RP-LC retention time is 701 s.
Next, `COCCN(Cc1ccc(Cl)cc1)Cc1cc(=O)n2ccccc2n1`: 635 s.
The same measure for `CC(C)CCNS(=O)(=O)c1cc(-c2nc(C(C)(C)C)cs2)cs1`: 1310 s; for `Cc1ccc(F)cc1NC(=O)Cn1cnc2nc(N3CCCC(C(=O)NC(C)C)C3)sc2c1=O` (centres undefined): 712 s; for `COc1ccc(Br)c(C(=O)Nc2nnc(Cc3ccc(F)cc3)o2)c1`: 774 s.
The same measure for `CN(C(=O)Cn1cccc1-c1nc(-c2ccccc2)no1)c1ccccc1`: 1100 s.
In the case of `CC(C)(C)c1ccc(C(=O)NCc2cnn3ccccc23)cc1`, the RP-LC retention time was found to be 806 s.
In turn, `COc1ccc(N2CC(c3nc(-c4ccncc4)no3)CC2=O)cc1Cl` (centres undefined) returned an RP-LC retention time of 752 s.
Next, `CCOc1ccccc1-c1noc(Cn2c(=O)n(Cc3ccccc3)c(=O)c3sccc32)n1`: 1090 s.
Next, `COc1ccc(-c2noc(-c3nc(-c4ccccc4OC)no3)n2)cc1OC`: 1070 s.
Next, `Cc1ccc(C(C)NC(=O)C2CCCN(c3nc4c(s3)c(C)nn4-c3ccc(F)cc3)C2)cc1` (centres undefined): 1230 s; `O=C(NCCc1ccccc1)c1cn2c3c(ccc(Cl)c3c1=O)OCC2`: 880 s; `Cc1cccc(NC(=O)C2CCCN(c3nnc(C)c4c(C)n(-c5ccccc5)nc34)C2)c1C` (centres undefined): 754 s.
Molecule `O=C(Nc1nnc(C2CC(=O)N(c3ccccc3)C2)o1)c1ccc(F)cc1` (centres undefined) came in with an RP-LC retention time of 708 s.
Next, `Cc1cc(F)ccc1NS(=O)(=O)c1cc(-c2[nH]ncc2C(=O)N2CCOCC2)oc1C`: 678 s.
The same measure for `O=C(CSCc1ccccc1)Nc1nnc(-c2ccsc2)o1`: 757 s; for `Cn1c(=O)c(N2CCCC(C(=O)NCc3cccc(Br)c3)C2)nc2ccccc21` (centres undefined): 998 s; for `CCCn1cnc2ccc(-c3noc(CNS(=O)(=O)c4ccccc4)n3)cc21`: 682 s.
Regarding `NC(=O)Cn1cnc2c(-c3ccc(F)cc3)nsc2c1=O`, the RP-LC retention time is 713 s.
Next, `CCC(C)CC(=O)N1CCCN(C2=NS(=O)(=O)C(c3ccc(Cl)cc3)=C2C)CC1` (centres undefined): 944 s.
The molecule `COc1ccc(OC)c(NC(=O)c2cc(S(=O)(=O)N3CCC(C)CC3)cn2C)c1` showed an RP-LC retention time of 1060 s.
Next, `COCCCNC(=O)CCC(=O)N1CCCn2nc(-c3cn(C)c4ccccc34)cc21`: 670 s; `CCCNC(=O)C1CCN(c2nccnc2Sc2cccc(C)c2)CC1`: 946 s.
In turn, `Cc1sc(-c2noc(C(C)C)n2)cc1S(=O)(=O)N1CCC(C(=O)NCc2cccs2)CC1` returned an RP-LC retention time of 1030 s.
Next, `O=C(Nc1cnc(N2CCOCC2)nc1)c1ccc(F)c(Cl)c1`: 820 s; `Cc1cc(C)cc(NC(=O)Cn2c(C)nc3c(sc4nc(-c5ccccc5)ccc43)c2=O)c1`: 1050 s.
`Cc1[nH]c(C)c(S(=O)(=O)N2CCC(C(=O)NC3CCCC3)CC2)c1C(=O)N1CCCC1` had an RP-LC retention time of 659 s.
In turn, `CC(C)c1ccc2c(c1)-c1ccccc1S(=O)(=O)N2CC(=O)NCc1ccncc1` had an RP-LC retention time of 699 s.
Next, `CN1CCCn2nc(C3CCN(C(=O)NCCc4ccccc4)CC3)cc2C1=O`: 657 s; `COCCN(CC(=O)N1CCc2sccc2C1COc1ccccc1F)C(=O)C(C)C` (centres undefined): 912 s; `Cc1ccc(-c2ccc(-n3nc(C)c(S(=O)(=O)N4CCN(C)CC4)c3C)nn2)cc1`: 695 s.
The same measure for `COc1ccc(Br)cc1C1C(C(=O)N2CCOCC2)=C(C)NC2=C1C(=O)CC(C)(C)C2` (centres undefined): 683 s; for `COc1ccc(CNC(=O)C2CCN(C(=O)C3Sc4ccccc4NC3=O)CC2)cc1` (centres undefined): 731 s.
The same measure for `COCCC(=O)Nc1ccc(-c2nc(Cn3nc(C)cc3C)c(C)o2)cc1`: 729 s.
Molecule `CCc1ccc(S(=O)(=O)N2CCC(n3c(-c4ccco4)nc4cccnc43)C2)cc1` (centres undefined) gave an RP-LC retention time of 972 s.
The same measure for `COCc1cc(=O)n(CC(=O)Nc2ccc(C)c(C)c2)c(N)n1`: 647 s.
The molecule `O=C1N(c2cccc(F)c2)c2ncccc2S(=O)(=O)N1Cc1ccccc1F` yielded an RP-LC retention time of 1020 s.
The same measure for `Cc1ccc(F)cc1S(=O)(=O)N1CCC(C2CCNC2)CC1` (centres undefined): 651 s.
Next, `CCS(=O)(=O)N1CCc2nc(-c3ccc(OC)cc3)ncc2C1`: 805 s.
In the case of `O=C1CC(/C=C/c2ccccc2)Cc2nc(N3CCN(Cc4ccc5c(c4)OCO5)CC3)ncc21` (centres undefined), the RP-LC retention time amounted to 782 s.
On to `CCc1ccc(C2=C(C)C(N3CCCN(C(=O)C4CCCCC4)CC3)=NS2(=O)=O)cc1`, for which the RP-LC retention time was 976 s.
With `O=C(CC1CCN(S(=O)(=O)c2ccc(Cl)s2)CC1)N1CCCCCC1`, the RP-LC retention time amounted to 1000 s.
Next, `Cc1ccc(NC(=O)CSc2nnc3c4cc(-c5ccccc5)nn4ccn23)c(Cl)c1`: 957 s.
`CCOc1ccc(C2Cn3nnc(-c4nc(-c5cccc(Br)c5)no4)c3CO2)cc1` (centres undefined) gave an RP-LC retention time of 1310 s.
In turn, `Cc1nc(NC(=O)c2ccc(-n3ccnc3)nn2)sc1C` gave an RP-LC retention time of 589 s.
Next, `Cc1ccccc1OCC(=O)Nc1cnn(C)c(=O)c1N1CCOCC1`: 810 s; `Cc1nc(N2CCCC(C(=O)NCCc3ccc(S(N)(=O)=O)cc3)C2)c2c(C)c(C)oc2n1` (centres undefined): 680 s.
The same measure for `OCc1nc2ccccc2n1C/C=C/c1ccccc1`: 579 s; for `Cc1cc(C)cc(NC(=O)C2CCCN(S(=O)(=O)c3cn(C(C)C)cn3)C2)c1` (centres undefined): 876 s; for `CC1=C(c2ccc(Cl)cc2)S(=O)(=O)N=C1N1CCCN(C(=O)NCC(C)C)CC1`: 845 s.
Next, `Cc1ccc2[nH]c(C(=O)NCC3CCCO3)cc2c1` (centres undefined): 776 s; `CCOc1cc(=O)n2c(c1C(=O)N1CCCCCC1)CCCCC2`: 703 s.
In the case of `Cc1ccc(S(=O)(=O)N2CCCC2C(=O)Nc2ccc(Br)cc2)cc1` (centres undefined), the RP-LC retention time turned out to be 1020 s.
As to `COc1nn(C)cc1C(=O)NCc1n[nH]c(=O)c2ccccc12`, the RP-LC retention time came out at 573 s.
In the case of `COc1ccc(S(=O)(=O)N2CC=C(c3cn(C(C)C)c4ncccc34)CC2)cc1`, the RP-LC retention time stood at 1070 s.
Consider `O=c1c2ccccc2n(Cc2nc(-c3ccc(Br)cc3)no2)c(=O)n1CC1CCCO1` (centres undefined), for which the RP-LC retention time was found to be 1120 s.
The same measure for `Cc1ccc(CNC(=O)CN2C(=O)CCCc3cc(S(=O)(=O)N4CCCC4)ccc32)cc1`: 824 s; for `CC1CCCCN1S(=O)(=O)c1ccc(C(=O)Nc2nc3c(s2)CCc2ccccc2-3)cc1` (centres undefined): 1270 s.
For the molecule `Cc1ccc(NC(=O)Cn2nc3n(c2=O)CCCC3)cc1F`, the RP-LC retention time was found to be 677 s.
The same measure for `Cc1cccc(Oc2cc(N3CCC(C(=O)Nc4cccc(C(C)C)c4)CC3)ncn2)c1C`: 1200 s; for `CCOC(=O)c1nc(NCCCOC)c2c(-c3ccc(F)cc3)noc2n1`: 944 s; for `COc1ccc(C2(C(=O)N3CCCN(Cc4noc(-c5ccccc5)n4)CC3)CC2)cc1`: 703 s.
Next, `CCOC(=O)c1noc2ncnc(N(C)Cc3ccccc3)c12`: 988 s.
Next, `CCCn1c(=O)c2cc(C(=O)N3CCN(c4ccccc4)CC3)nn2c2ccccc21`: 1030 s.
In the case of `Nc1cc(C2CCN(C(=O)Nc3ccc(Cl)cc3)CC2)no1`, the RP-LC retention time stood at 722 s.
The same measure for `CC1CCc2nc3ncn(CC(=O)NC(C)c4ccccc4)c(=O)c3cc2C1` (centres undefined): 762 s.
Next, `COc1ccc(NC(=O)c2ccc3[nH]c4c(c3c2)CN(C(C)=O)CC4)c(OC)c1`: 690 s; `CC(C)c1noc(C2(NC(=O)c3ccc(Cl)cc3)CCCCC2)n1`: 1100 s.
Next, `Cn1nc(N2CCCC(NS(=O)(=O)Cc3ccccc3)C2)ccc1=O` (centres undefined): 702 s.
